Measured values from patent US9687477B2 (priority 2011, dated 2017).

Assays:
[1] = system: Influenza A/WSN/33 virus (H1N1); assay: microbe, parasite or virus in culture; format: cell-based

SMILES: CCCCCCCCCCCCC/C=C/[C@@H](O)[C@H](CO)N(C)C [DMS, D-erythro-N,N-dimethylsphingosine]
- influenza viral protein expression (influenza virus): inhibition was also observed
- influenza viral protein expression (NP, NS1, NS2, M1, M2) (influenza virus): inhibited influenza viral protein expression
- production of infectious influenza virus particles (virus titer, plaque assay) [1]: suppressed the production of infectious influenza virus particles

SMILES: Oc1ccc(Nc2nc(-c3ccc(Cl)cc3)cs2)cc1 [SKI-II, 4-[4-(4-Chloro-phenyl)-thiazol-2-ylamino]-phenol]
- influenza viral protein expression (influenza virus): inhibition was also observed
- influenza viral protein expression (NP, NS1, NS2, M1, M2) (influenza virus): inhibited influenza viral protein expression
- production of infectious influenza virus particles (virus titer, plaque assay) [1]: suppressed the production of infectious influenza virus particles
